Target: Isocitrate dehydrogenase [NADP] cytoplasmic (Homo sapiens, UniProt O75874, R132H)
Assay: Inhibition of IDH1 R132H mutant (unknown origin)

Sequence of Isocitrate dehydrogenase [NADP] cytoplasmic (O75874 2-414 R132H limits assumed): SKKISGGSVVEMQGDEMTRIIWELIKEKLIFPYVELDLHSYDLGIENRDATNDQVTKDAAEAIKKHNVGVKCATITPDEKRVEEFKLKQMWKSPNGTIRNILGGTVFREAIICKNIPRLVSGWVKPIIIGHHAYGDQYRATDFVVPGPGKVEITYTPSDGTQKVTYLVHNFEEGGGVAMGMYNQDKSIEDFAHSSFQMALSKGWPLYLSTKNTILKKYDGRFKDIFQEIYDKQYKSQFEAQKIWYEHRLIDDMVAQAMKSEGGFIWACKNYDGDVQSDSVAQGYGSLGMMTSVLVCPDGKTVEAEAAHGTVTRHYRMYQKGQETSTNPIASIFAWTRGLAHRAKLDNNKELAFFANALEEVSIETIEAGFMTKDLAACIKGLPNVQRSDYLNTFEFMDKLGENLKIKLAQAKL

**Q.** With `O=C(NC1CCCCC1)[C@@H](c1ccccc1)N(C(=O)Cc1cccs1)c1cccc(F)c1` as the molecule, how does the IC50 read?
**A.** > 11 µM
